Measured values as given in patent US11419902B2, “Compositions comprising bacterial strains” (4D Pharma Research Limited, priority 2018, dated 2022).

Legend:
Type in all cases: cell-based
β3Tubulin = β3Tubulin expression in SH-SY5Y cells (immunostaining, immunoblotting); details: undifferentiated SH-SY5Y cells, 10% bacterial supernatant 24 h, vs untreated cells
Procedure: Cells were seeded onto 8-well chamber slides (Marienfeld Laboratory Glassware) at 5×10^4 cells/well overnight and were treated with 10% bacterial supernatant for 24 h. For differentiation, cells were treated with 10 nM RA for 5 days before treating with cell-free bacterial supernatant for 24 h.
Afterwards, the cells were fixed with 4% paraformaldehyde in PBS for 20 minutes at room temperature (RT). Fixed cells were washed with PBS, and permeabilized with 1% Triton X-100 in PBS for 10 minutes. After washing with PBS, the slides were incubated with blocking buffer (4% BSA/PBS) for 1 h at RT before adding anti-MAP2 antibody or β3-tubulin (sc-74421 and sc-80005 respectively, Santa Cruz Biotechnology Inc) diluted in 1% BSA/PBS for 12 h at 4° C. They were then washed twice with PBS, followed by incubation with Alexa Flour 488 conjugated anti-mouse (Molecular Probes Inc) and Alexa Flour 594 conjugated Phalloidin (ab176757, Abcam) for 1 h at RT. […]
SH-SY5Y cells cultured under the indicated conditions described above, treated with MRx0029 for 24 h and then lysed in RIPA buffer containing cocktail of protease inhibitors (Roche Diagnostics, UK). […] The blots were then incubated with the appropriate horseradish peroxidase (HRP)-conjugated secondary antibody, and proteins were detected by chemiluminescence detection kit (Pierce Biotechnology, Rockford, Ill.). […]

histone deacetylase = experiment: Histone deacetylase activity in HT-29 cells; details: 10% cell free supernatant, 48 hours
Procedure: Cell free supernatants of stationary phase bacterial cultures were isolated by centrifugation and filtering in a 0.22 uM filter. HT-29 cells were used 3 days post confluence and stepped down in 1 mL DTS 24 hours prior to commencement of the experiment. The HT-29 cells were challenged with 10% cell free supernatant diluted in DTS and was is left to incubate for 48 hours. […] proteins were then extracted using the Sigma Aldrich […] extraction kit and samples were snap frozen prior to HDAC activity measurement. HDAC activity was assessed fluorometrically using the Sigma Aldrich (UK) kit.

[1] = test system: HT29 colorectal cancer cell line; experiment: Clonogenic survival of HT29 cell line; details: HT29, relative to both negative controls (cell line only, and YCFA+ +DMSO)
Procedure: Cells were trypsinized and 200 cells/well were seeded in 12-well plates. After 48 h cells were treated with the appropriate drugs in absence (YCFA+) or presence of 10% bacterial supernatant and were re-fed every three days. On day 21 after seeding, cells were fixed in ice-cold methanol and stained with Crystal Violet blue. […] were counted and survival fraction was calculated as number of colonies divided by the number of plated cells (plating efficiency) of treated divided by the plating efficiency of control.
The effects of the following treatments were assessed on the HT29 colorectal cancer cell line (V600E oncogenic mutation in BRAF): (1) MRx0029; (2) Vemurafenib (VEMU) in YFCA+ medium; (3) VEMU and MRx0029; (4) Azacytidine-C (Aza-c) in YCFA+ medium; (5) Aza-c and MRx0029; (6) VEMU, Aza-c and MRx0029.

IL-8 = IL-8 secretion by the HT29 cell line co-incubated with bacteria (ELISA); details: differentiated HT29 cells, bacteria 10^7 CFU 2 hr, with THP1 conditioned media or alone
Procedure: HT29 cells were plated in 12 well plates at a density of 200,000 cells/well. Cells were being differentiated for 10 days (media change every 2 days). The day of the experiment cells were placed in the anaerobic hood and washed with anaerobic equilibrated HANKs solution. Then 900 ul of growth media (without FBS and antibiotics) was added to the cells. Bacteria cells were resuspended in of growth media (without FBS and antibiotics) and were then added at 10^7 CFU in total in 100 ul. Cells were co-incubated with bacteria for 2 hr in an anaerobic hood. Afterwards cells were washed in growth media without FBS but containing antibiotics. Cells were left to rest in 1 ml of THP1 condition media for 24 h. After 24 h incubation the supernatant was collected and spun down at 10,000 g for 3 min and 4° C. Samples were frozen at −80° C. until further use.
THP1 condition media: THp1 were seeded on T25 flask at density of 4×10^6/flask. Cells were treated in RPMI media (contain 2 mM L-glutamine without FBS) with 1 ug/ml LPS or LPS+5 mM ATP (ATP added 3 hours after LPS). Cells were left to rest for 24 hr. Thereafter Condition Media (CM) was collected by spinning down the cells at 250 g for 5 min and RT. Different CMs were used to treat HT29 Cells. A small aliquot was frozen at […] for ELISA. […]

With Megasphaera massiliensis MRx0029 the “expression of β3Tubulin” value (β3Tubulin) was “increases the expression of β3Tubulin”, the “levels of histone deacetylase activity” value (histone deacetylase) was “able reduce the levels of histone deacetylase activity” and the clonogenic survival [1] was “decreased clonogenic survival”. For the same substance, the IL-8 secretion (IL-8) was “increased IL-8 secretion”.
